# Results published in US20230172846A1, “ORAL DISSOLVABLE FILM AND METHOD OF MANUFACTURING AND USING THE SAME” (CURE PHARMACEUTICAL HOLDING CORP., priority 2019, published 2023).
# Tests used:
# [1] = Vitamin D3 Oral Thin Film 4 weeks stability study (% assay); assay type: physicochemical; settings: for % Assay of Vitamin D3: in oral thin film
# Excerpt: Vitamin D3 is a highly sensitive Lipophilic active pharmaceutical ingredient (API). It was used as a model drug, formulated using above formulation and, Vitamin D3 Oral Thin Film tested for 4 weeks stability study.
# pancreatic cancer = settings: in vivo; cited from earlier work
# [2] = CBD film stability study (% assay of CBD); assay type: physicochemical
structure (smiles),measurement,setting,value
C=C1CC[C@H](O)C/C1=C/C=C1\CCC[C@]2(C)[C@@H]([C@H](C)CCCC(C)C)CC[C@@H]12 [Vitamin D3],Protection and stability of Vitamin D3 in OTF,"[1]; 4 weeks stability study, high heat and humidity",significant protection
same,% Assay of Vitamin D3,"[1]; 25 C./60% RH, T 1 Week",95%
same,% Assay of Vitamin D3,"[1]; 25 C./60% RH, T2 Weeks",100%
same,% Assay of Vitamin D3,"[1]; 25 C./60% RH, T3 Weeks",101%
same,% Assay of Vitamin D3,"[1]; 25 C./60% RH, T4 Weeks",101%
same,% Assay of Vitamin D3,"[1]; 40 C./75% RH, T 1 Week",98%
same,% Assay of Vitamin D3,"[1]; 40 C./75% RH, T2 Weeks",92%
same,% Assay of Vitamin D3,"[1]; 40 C./75% RH, T3 Weeks",91%
same,% Assay of Vitamin D3,"[1]; 40 C./75% RH, T4 Weeks",93%
same,% Assay of Vitamin D3,[1]; T0 Week,100%
COc1cc(-c2cc(=O)c3c(O)cc(O)c(CC=C(C)C)c3o2)ccc1O [FBL-03G],Survival rate of subjects suffering from pancreatic cancer,pancreatic cancer,increase survival rate
"C=C(C)[C@@H]1CCC(C)=C[C@H]1c1c(O)cc(CCCCC)cc1O [CBD, Cannabidiol]",% Assay of CBD,"[2]; 25 C./60% RH, T0 Week",108%
same,% Assay of CBD,"[2]; 25 C./60% RH, T1 Month",109%
same,% Assay of CBD,"[2]; 25 C./60% RH, T2 Months",113%
same,% Assay of CBD,"[2]; 25 C./60% RH, T 2 Weeks",109%
same,% Assay of CBD,"[2]; 25 C./60% RH, T3 Months",120%
same,% Assay of CBD,"[2]; 40 C./75% RH, T1 Month",106%
same,% Assay of CBD,"[2]; 40 C./75% RH, T2 Months",113%
same,% Assay of CBD,"[2]; 40 C./75% RH, T 2 Weeks",108%
same,% Assay of CBD,"[2]; 40 C./75% RH, T3 Months",118%
same,% Assay of CBD,"[2]; 40 C./75% RH, T9 Months",96%
same,Stability and protection of the API in the film formulation,[2]; T=3M stability,better stability
same,% Assay of CBD,"[2]; in film formulation, 25 C./60% RH, T1 Month",109%
same,% Assay of CBD,"[2]; in film formulation, 25 C./60% RH, T2 Months",113%
same,% Assay of CBD,"[2]; in film formulation, 25 C./60% RH, T 2 Weeks",109%
same,% Assay of CBD,"[2]; in film formulation, 25 C./60% RH, T3 Months",120%
same,% Assay of CBD,"[2]; in film formulation, 40 C./75% RH, T1 Month",106%
same,% Assay of CBD,"[2]; in film formulation, 40 C./75% RH, T2 Months",113%
same,% Assay of CBD,"[2]; in film formulation, 40 C./75% RH, T 2 Weeks",108%
same,% Assay of CBD,"[2]; in film formulation, 40 C./75% RH, T3 Months",118%
same,% Assay of CBD,"[2]; in film formulation, T0 Week",108%
